System: CT26 cells
Assay: mRNA expression in CT26 tumor tissue after intratumoral injection (qPCR)
Type: in vivo, BALB/c mice
Details: 4 hours post intratumoral injection, 2.5 μg, 250 ng, 50 ng
Experimental: We next asked whether H1b-ADP caused an increase in pro-inflammatory cytokines within the tumor. Tumor cells (2×10^5 per 100 μL CT26 cells) were inoculated subcutaneously into the right flank of BALB/c mice. 2.5 μg (n=2), 250 ng (n=2), 50 ng (n=2) of H1b-ADP or control (n=2) was intratumorally injected (20 uL) at day 7 post inoculation. 4 hours post-injection, tumor issues were dissected and harvested. Total RNA was isolated (TRIzol™, ThermoFisher) and cDNA was synthesized (PrimeScript™ RT reagent Kit, Takara) and amplified (AceQ™ qPCR SYBR™ Green Master Mix, Vazyme Biotech using a QuantStudio™ 7 Flex Real-Time PCR Systems (ThermoFisher) according to manufacturers' protocols.

Nc1ncnc2c1ncn2[C@@H]1O[C@H](COP(=O)(O)OP(=O)(O)O[C@@H]2O[C@H]([C@H](O)CO)[C@@H](O)[C@H](O)[C@@H]2O)[C@@H](O)[C@H]1O [Compound H1b-ADP, D-glycero-D-manno-heptose-1β-ADP]
increased: PD-1 and PD-L1 expression | mRNA expression of cytotoxic T cell marker CD8, T-helper cell marker CD4, regulatory T cell marker Foxp3 and Th1 cell marker T-bet | mRNA expression of inflammatory cytokine IL-1b, Tnfa, Ifn gamma, and IL-6, and chemokine Cxcl1

Reference: patent US11186606B2, “Compositions and methods of modulating the immune response by activating alpha protein kinase 1” (Shanghai Yao Yuan Biotechnology Co., Ltd., priority 2017, dated 2021)
